Laboratory results reported in ChEMBL document CHEMBL5604062, “ASAP - ZIKV NS2B-NS3 protease fluorescence dose response” (2024).
“And” between values parts separate entries of the source, which are not always exact repeats. Equal values may be shown once.

These compounds were tested against Nonstructural protein 3 (Zika virus, UniProt A0A024AXB9) (assay: Functional biochemical assay to identify treatments for viral infectious disease that targets Zika NS2B-NS3 protease. Utilizing a direct enzyme activity measurement method, reading the fluorescence intensity is used to characterize the relative potency of inhibitors as IC50.).
Chain of Nonstructural protein 3 (A0A024AXB9 whole entry): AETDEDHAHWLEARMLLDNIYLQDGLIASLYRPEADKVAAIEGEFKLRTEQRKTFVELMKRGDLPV
Parameters: species or system PRVABC59

Row | Structure (SMILES) | IC50
1 | Cc1ncsc1C(=O)N[C@H](C(=O)Nc1cccc(CN)c1)c1ccc(OCc2ccccc2)cc1 | > 99.5 µM
2 | O=C(O)c1cc(Cl)ccc1NS(=O)(=O)c1ccc(OCc2ccncc2)cc1 | > 99.5 µM
3 | Cc1noc(C)c1C(=O)N[C@@H](C(=O)Nc1cccc(CN)c1)c1ccc(OCc2ccccc2)cc1 | > 99.5 µM
4 | COc1ccc(F)cc1-c1ccc(S(=O)(=O)Nc2ccc(Cl)cc2C(=O)O)cc1 | 28.8 µM
5 | O=C(NCCO)c1cc(Cl)ccc1NS(=O)(=O)c1ccc(Oc2ccccc2Cl)cc1 | > 99.5 µM
6 | NCc1cccc(NC(=O)[C@H](NC(=O)C2CCC2)c2ccc(OCc3ccccc3)cc2)c1 | > 99.5 µM
7 | N[C@H]1CCc2cc(-c3ccn(-c4ccccc4)n3)ccc2C1 | > 99.5 µM
8 | O=C(O)c1cc2c(cc1NS(=O)(=O)c1ccc(F)cc1)CCC2 | > 99.5 µM
9 | CCc1ccccc1COc1ccc(S(=O)(=O)Nc2ccc(Cl)cc2C(=O)O)cc1 | 12.6 µM
10 | NCc1cccc(NC(=O)C[C@H](NC(=O)OCc2ccccc2)c2ccc(OC(F)(F)F)cc2)c1 | 33.9 µM and 39.5 µM
11 | N[C@]12CCC[C@](C(=O)NCc3ccc4c(c3)CCNCC4)(CC1)C2 | > 99.5 µM
12 | NCc1cccc(NC(=O)C[C@H](NC(=O)OCc2ccccc2)c2ccc(Cl)c(Br)c2)c1 | 20.7 µM and 18.8 µM and 15.9 µM and 15.5 µM
13 | CCn1nccc1-c1cccc([C@@H](NC(=O)OCc2ccccc2)C(=O)Nc2cccc(CN)c2)c1 | > 99.5 µM
14 | CC(C)(C)c1cc(N2CCN(c3cccc4[nH]ncc34)CC2)nc(C(=O)O)n1 | > 99.5 µM
15 | NCCNC(=O)c1cc(Cl)ccc1NS(=O)(=O)c1ccc(Oc2ccccc2Cl)cc1 | > 99.5 µM
16 | O=C(O)c1cc(Cl)ccc1NS(=O)(=O)c1ccc(OCc2nnnn2C2CCC2)cc1 | > 99.5 µM
17 | NCc1cccc(NC(=O)[C@H](NC(=O)OCc2ccccc2)c2ccc(Br)c(Cl)c2)c1 | 10.9 µM and 8.65 µM and 8.23 µM and 9.33 µM
18 | NCc1cccc(NC(=O)[C@H](NC(=O)OCc2ccccc2)c2ccc(Br)c(F)c2)c1 | 64.4 µM
19 | CC(C)Oc1ccccc1C(=O)N[C@H](C(=O)Nc1cccc(CN)c1)c1ccc(OCc2ccccc2)cc1 | 34.4 µM
20 | O=C(O)c1cc(Cl)ccc1NS(=O)(=O)c1ccc(OCc2cncnc2)cc1 | > 99.5 µM
21 | O=C(O)c1cc(Cl)ccc1NS(=O)(=O)c1ccc(NC2CCNCC2)nc1 | > 99.5 µM
22 | N#Cc1c(C(F)F)cccc1N1CCC(n2ncc(N)c2C(F)(F)F)CC1 | > 99.5 µM
23 | NCc1cccc(CNC(=O)c2cc(Cl)cc(NC(=O)OCc3ccccc3)c2)c1 | 51.3 µM
24 | NCc1cccc(NC(=O)[C@H](NC(=O)OCc2ccccc2)c2cccc(-c3ccc(S(N)(=O)=O)cc3)c2)c1 | 84.1 µM

Row | Structure (SMILES) | IC50
25 | CCn1c(=O)c(N2C[C@H]3C[C@@]3(C(F)F)C2)nc2ccccc21 | > 99.5 µM
26 | Cc1cc(F)cc(N(C)C(=O)c2ccc(C3(CN)CC3)cc2)c1 | > 99.5 µM
27 | NCc1cccc(NC(=O)[C@H]2[C@H]3CCCC[C@H]3[C@@H]2NC(=O)OCc2ccccc2)c1 | 94.4 µM
28 | NCc1ccnc(CNC(=O)[C@@H](NC(=O)OCc2ccccc2)c2ccc(OCc3ccccc3)cc2)c1 | 93.7 µM
29 | CCn1c(=O)c(N2CC[C@H](c3nccn3C)C2)nc2ccccc21 | > 99.5 µM
30 | Cc1n[nH]cc1CC(=O)N1CCCC12CCN(C(=O)c1ccnc(CO)c1)CC2 | > 99.5 µM
31 | NCc1cccc(NC(=O)C[C@H](NC(=O)OCc2ccccc2)c2ccc(Cl)c(F)c2)c1 | 71.4 µM
32 | CC[C@H]1CN(C(=O)c2ccc(C3(CN)CC3)cc2)Cc2ccccc21 | > 99.5 µM
33 | Cn1cnc2c1CN(Cc1ccc3c(c1)CCNCC3)CC2 | > 99.5 µM
34 | NCC1(NC(=O)[C@H](NC(=O)OCc2ccccc2)c2ccc(OCc3ccccc3)cc2)CCCCC1 | 58.5 µM
35 | Cn1ccnc1C(=O)N[C@H](C(=O)Nc1cccc(CN)c1)c1ccc(OCc2ccccc2)cc1 | > 99.5 µM
36 | CCn1c(=O)c(N2CC[C@H](N3CCCC3=O)C2)nc2ccccc21 | > 99.5 µM
37 | CCn1c(=O)c(N2CC[C@H](c3cnccn3)C2)nc2ccccc21 | > 99.5 µM
38 | NCc1cccc(NC(=O)[C@@H]2Cc3ccc(OCc4ccccc4)cc3CN2C(=O)OCc2ccccc2)c1 | 21.7 µM
39 | NCC1(c2ccc(C(=O)N3CCc4scc(Br)c4C3)cc2)CC1 | > 99.5 µM
40 | CCn1c(=O)c(N2CC[C@]3(CCNC3=O)C2)nc2ccccc21 | > 99.5 µM
41 | NCc1cccc(CNC(=O)[C@@H](NC(=O)OCc2ccccc2)c2ccc(OCc3ccccc3)cc2)n1 | 65.6 µM
42 | NCc1cccc(NC(=O)[C@]2(NC(=O)OCc3ccccc3)COc3cc(Br)ccc32)c1 | > 99.5 µM
43 | CCn1c(=O)c(N2C[C@H]3COC[C@@]3(C)C2)nc2ccccc21 | > 99.5 µM
44 | CC(C)CNC(=O)c1cc(Cl)ccc1C=Cc1ccc(Oc2ccccc2Cl)cc1 | > 99.5 µM
45 | NCc1ccc(CNC(=O)[C@@H](NC(=O)OCc2ccccc2)c2ccc(OCc3ccccc3)cc2)cc1 | 14.2 µM and 11.5 µM
46 | CC(C)[C@@H]1[C@H](C(=O)Nc2cccc(CN)c2)CCN1C(=O)OCc1ccccc1 | > 99.5 µM
47 | NCc1cccc(NC(=O)[C@H](NC(=O)C2CCCCC2)c2ccc(OCc3ccccc3)cc2)c1 | 22.3 µM and 20 µM
48 | Cn1ncc2cc(C(=O)N3CCC(NC(=O)[C@]4(C)CCC[C@H]4O)CC3)cc(O)c21 | > 99.5 µM

Row | Structure (SMILES) | IC50
49 | CCn1c(=O)c(N2CC[C@H](c3ccccc3)C2)nc2ccccc21 | > 99.5 µM
50 | CCOC(=O)c1cc(C(=O)N[C@H](C(=O)Nc2cccc(CN)c2)c2ccc(OCc3ccccc3)cc2)n(C)n1 | 23.7 µM and 23.1 µM
51 | Cc1occ(C(F)(F)F)c1C(=O)N[C@H](C(=O)Nc1cccc(CN)c1)c1ccc(OCc2ccccc2)cc1 | 61 µM
52 | NCc1cccc(NC(=O)[C@H](NC(=O)[C@H]2CCOC2)c2ccc(OCc3ccccc3)cc2)c1 | > 99.5 µM
53 | NCc1cccc(NC(=O)[C@H](NC(=O)c2ccccc2Cl)c2ccc(OCc3ccccc3)cc2)c1 | 33.1 µM
54 | C[C@]1(C(=O)N[C@H](C(=O)Nc2cccc(CN)c2)c2ccc(OCc3ccccc3)cc2)COc2ccccc2O1 | 17.2 µM
55 | O=C(NC1CCCCC1)c1cc(Cl)ccc1NS(=O)(=O)c1ccc(Oc2ccccc2Cl)cc1 | > 99.5 µM
56 | NCc1cccc(NC(=O)[C@@H](NC(=O)OCc2ccccc2)c2ccc(OCc3ncccn3)cc2)c1 | 47.9 µM
57 | NCc1cccc(NC(=O)[C@H]2[C@H]3CCCCC[C@H]3[C@H]2NC(=O)OCc2ccccc2)c1 | 41.3 µM and 51.2 µM and 13 µM and 11.9 µM
58 | CCn1c(=O)c(N2CC[C@]3(CNC(=O)O3)C2)nc2ccccc21 | > 99.5 µM
59 | Cc1cc(-c2cccc([C@@H](NC(=O)OCc3ccccc3)C(=O)Nc3cccc(CN)c3)c2)ccn1 | 88.1 µM
60 | CCn1c(=O)c(N2C[C@H]3CCS(=O)(=O)[C@H]3C2)nc2ccccc21 | > 99.5 µM
61 | NCc1cccc(NC(=O)[C@H](NC(=O)c2ccncc2)c2ccc(OCc3ccccc3)cc2)c1 | > 99.5 µM
62 | NCc1cccc(NC(=O)[C@H](NC(=O)OCc2ccccc2)c2ccc(CO)cc2)c1 | > 99.5 µM
63 | NCc1cccc(NC(=O)[C@H](NS(=O)(=O)c2ccc(Oc3ccccc3Cl)cc2)c2ccc(OCc3ccccc3)cc2)c1 | 65.4 µM
64 | CCCCCN(C)C(=O)c1cc(Cl)ccc1NS(=O)(=O)c1ccc(Oc2ccccc2Cl)cc1 | > 99.5 µM
65 | Cc1ccc([C@H]2[C@H](C)CN2C(=O)c2ccc(C(F)(F)CN)cc2)cc1 | > 99.5 µM
66 | CN(C)CCc1ccc(CNC(=O)[C@@H](NC(=O)OCc2ccccc2)c2ccc(OCc3ccccc3)cc2)cc1 | 54.6 µM
67 | O=C(O)c1ccc(F)c(F)c1NS(=O)(=O)c1ccc(Oc2ccccc2Cl)cc1 | > 99.5 µM
68 | CCn1c(=O)c(N2C[C@@H]3C[C@]3(CO)C2)nc2ccccc21 | > 99.5 µM
69 | O=C(N[C@@H](C(=O)NCc1cccc2c1CCNC2)c1ccc(OCc2ccccc2)cc1)OCc1ccccc1 | 39.4 µM
70 | CCn1c(=O)c(N2C[C@H](O)C3(CC3)C2)nc2ccccc21 | > 99.5 µM
71 | CCn1c(=O)c(N2C[C@]3(CO)C[C@H]2CO3)nc2ccccc21 | > 99.5 µM
72 | CCc1n[nH]cc1-c1cccc([C@H](NC(=O)OCc2ccccc2)C(=O)Nc2cccc(CN)c2)c1 | > 99.5 µM

Row | Structure (SMILES) | IC50
73 | CCn1c(=O)c(N2C[C@@H]3[C@H](C2)[C@H]2CC[C@@H]3O2)nc2ccccc21 | > 99.5 µM
74 | NCc1cccc(NC(=O)[C@H]2[C@H]3CCC[C@H]3[C@@H]2NC(=O)OCc2ccccc2)c1 | > 99.5 µM
75 | NCc1cccc(NC(=O)C[C@H](NC(=O)OCc2ccccc2)c2ccc(C(F)(F)F)cc2)c1 | 58.3 µM
76 | CCn1c(=O)c(N2CCC[C@@H]2Cn2cncn2)nc2ccccc21 | > 99.5 µM
77 | O=C(O)c1c(F)cc(F)cc1NS(=O)(=O)c1ccc(Oc2ccccc2Cl)cc1 | > 99.5 µM
78 | NC[C@H]1CC[C@H](NC(=O)[C@@H](NC(=O)OCc2ccccc2)c2ccc(OCc3ccccc3)cc2)CC1 | 81.2 µM
79 | N[C@@H](Cc1c[nH]cn1)C(=O)N1CCC2(CC1)OCCc1cc(O)ccc12 | > 99.5 µM
80 | NC[C@H]1C[C@@H](NC(=O)c2cc(Cl)ccc2NS(=O)(=O)c2ccc(Oc3ccccc3Cl)cc2)C1 | > 99.5 µM
81 | CN(C)CCNC(=O)[C@H](NC(=O)OCc1ccccc1)c1ccc(OCc2ccccc2)cc1 | > 99.5 µM
82 | NCc1cccc(NC(=O)C[C@H](NC(=O)OCc2ccccc2)C2CCCCC2)c1 | 83.1 µM and 78.1 µM
83 | O=C(N[C@@H](C(=O)NCC1CCNCC1)c1ccc(OCc2ccccc2)cc1)OCc1ccccc1 | > 99.5 µM
84 | NCc1cccc(NC(=O)[C@H](NC(=O)Cn2cccn2)c2ccc(OCc3ccccc3)cc2)c1 | > 99.5 µM
85 | NC[C@H]1CC[C@H](CNC(=O)[C@@H](NC(=O)OCc2ccccc2)c2ccc(OCc3ccccc3)cc2)CC1 | 80.3 µM
86 | C[C@]1(C(=O)N[C@H](C(=O)Nc2cccc(CN)c2)c2ccc(OCc3ccccc3)cc2)CCCO1 | > 99.5 µM
87 | CCn1c(=O)c(N2CC3(COC3)[C@](F)(CO)C2)nc2ccccc21 | > 99.5 µM
88 | CCn1ccnc(N2CC(=O)[C@@H](c3c[nH]c4ccccc34)C2)c1=O | > 99.5 µM
89 | NCc1cccc(NC(=O)c2cc(Cl)ccc2NS(=O)(=O)c2ccc(Oc3ccccc3Cl)cc2)c1 | > 99.5 µM
90 | CCn1c(=O)c(N2C[C@H]3C[C@H]2C(F)(F)C3)nc2ccccc21 | > 99.5 µM
91 | O=S(=O)(Nc1ccc(Cl)cc1CN(CC1CC1)CC1CC1)c1ccc(Oc2ccccc2Cl)cc1 | 32 µM
92 | O=C(NCc1nnn[nH]1)c1cc(Cl)ccc1NS(=O)(=O)c1ccc(Oc2ccccc2Cl)cc1 | > 99.5 µM
93 | NCc1cccc(NC(=O)C[C@H](NC(=O)OCc2ccccc2)c2ccc(Br)cc2)c1 | 48.7 µM
94 | NCc1ccc(-c2ccc(OCC3CCNCC3)nc2-c2ccc(-c3ccoc3)cc2)cc1 | 22.8 µM
95 | CCC1CN(C(=O)c2cc(Cl)ccc2NS(=O)(=O)c2ccc(Oc3ccccc3Cl)cc2)C1 | > 99.5 µM
